These results are taken from patent publication US20130259929A1, “USE OF A PHOSPHOPEPTIDE ABLE TO BLOCK HER3/P85 INTERACTION FOR THE TREATMENT OF HER2 HYPER-EXPRESSING TUMOURS” (priority 2010, published 2013).

Non-standard residues stand in square brackets, D forms with d. No end group written: not given here. pY = N[C@@H](Cc1ccc(OP(=O)(O)O)cc1)C(=O)O

One test addresses T1, p85 and HER3 interaction (Homo sapiens, UniProt P27986).
T1 construct: Whole cell lysates have been imunoprecipitated with anti-p85 antibody; endogenous in cells; host or cells: MCF7, BT474, MDA-MB-453
Description: Immunoprecipitation with anti-p85, blot anti-HER3, in transfected cells. The format is cell-based. The settings on record: three cell lines, 48 hr after Lipofectamine transfection (FIG. 2B). From the text:
Immunoprecipitation. MCF7, BT474 and MDA-MB-453 cell lines have been plated at 5×10^5 concentration in 60 mm plates. On subsequent day cells have been transfected with 1257 phosphopeptide and contrrol phosphopeptide. […] Whole cell lysates have been imunoprecipitated with anti-p85 antibody (#06-496) in the presence of protein G (Pierce, Milan, IT). Whole proteins and immunocomplexes then have been subjected to 8% SDS-PAGE and transferred on nitrocellulose filter. The proteins have been detected by immunodecoration using anti-ErbB3 and anti-p110α antibodies.
The peptide has been transfected using Lipofectamine in all three cell lines. […] This binding is required in order PI3K kinase to be activated.

A further test has as its system HER3. As to the kind of experiment: HER3 expression level (Western blot) after peptide transfection. The format is cell-based, human. The settings on record: after peptide treatment (FIG. 4A); poorly appreciable in MDA-MB-453. The method, then: Treatments and lmmunodecorations. […] Briefly the cells have been plated at 5×10^5 concentration in 60 mm plates. […] At the end of the treatment the cells have been lysed with RIPA buffer [150 mM NaCl, 1% NP-40, 0,5% sodium deoxycholate (DOC), 0.1% SDS, 50 mM TrisHCl (pH 8), 1 mM PMSF, 1 mM EGTA, 50 mM NaF, 50 mM Na3VO4 and protease inhibitors (Roche, Milano, IT)] in order to analyze the expression levels of phosphorylated and total ErbB-3, ErbB-2, ERK and HSP-70 proteins. In order to analyze the levels of Akt phosphorylation and expression, the cells have been lysed in NP-40 buffer [1% NP-40, 10% glycerol, 137 mM NaCl, 20 mM TrisHCl (pH 7.4), 50 mM NaF, 1 mM PMSF, 5 mM Na3VO4, protease inhibitors (Roche, Milano, IT)]. Cell lysates have been incubated on ice for 20 minutes and centrifuged at 14000 rpm for 20 minutes. RIPA buffer obtained cell extracts have been boiled for 5 minutes at 95° C., while NP40 buffer lysed samples have been boiled at 65° C. for 5 minutes. Samples have been subjected to SDS-PAGE and transferred on nitrocellulose filters (Bio-Rad, Milan, IT). Then the filters have been incubated with interest antibodies, washed and incubated with specific secondary horse radish peroxidase (HRP) conjugated antibodies. After thorough washing, nitrocellulose peroxidase activity has been detected by chemiluminescence (Lite-blot-Euroclone, Milano, IT)

Another test has as its system BT474 cells. As to the kind of experiment: Soft agar anchorage-independent growth. Type of test: cell-based, human. Particulars: compared to parental or scr peptide transfected cells. As to the method: (§1) Soft agar. […] Briefly cells (1×10^4) have been re-suspended in 5 ml of 0.3% agar in RPMI or DMEM supplemented with 10% FCS, and quickly stained on a solid layer of 1.2% agar in DMEM/RPMI. Cultures have been carried out for 4 weeks. Then colonies have been stained with viable colony specific neutral red solution (Sigma, Milan, IT), and then counted. Photographies have been taken using Leica DM IRE2 microscope and Leica FW4000 software (Leica Microsystems, Milan, IT).
(§2) Then it has been attempted to understand whether the peptide is suitable to reduce the cell ability to grow under anchorage-independence conditions.

A further test has as its system MCF7 cells. Description: Soft agar anchorage-independent growth. Type of test: cell-based, human. Particulars: compared to parental or scr peptide transfected cells. As to the method:
as §1, §2

T1 sequence (P27986 whole entry): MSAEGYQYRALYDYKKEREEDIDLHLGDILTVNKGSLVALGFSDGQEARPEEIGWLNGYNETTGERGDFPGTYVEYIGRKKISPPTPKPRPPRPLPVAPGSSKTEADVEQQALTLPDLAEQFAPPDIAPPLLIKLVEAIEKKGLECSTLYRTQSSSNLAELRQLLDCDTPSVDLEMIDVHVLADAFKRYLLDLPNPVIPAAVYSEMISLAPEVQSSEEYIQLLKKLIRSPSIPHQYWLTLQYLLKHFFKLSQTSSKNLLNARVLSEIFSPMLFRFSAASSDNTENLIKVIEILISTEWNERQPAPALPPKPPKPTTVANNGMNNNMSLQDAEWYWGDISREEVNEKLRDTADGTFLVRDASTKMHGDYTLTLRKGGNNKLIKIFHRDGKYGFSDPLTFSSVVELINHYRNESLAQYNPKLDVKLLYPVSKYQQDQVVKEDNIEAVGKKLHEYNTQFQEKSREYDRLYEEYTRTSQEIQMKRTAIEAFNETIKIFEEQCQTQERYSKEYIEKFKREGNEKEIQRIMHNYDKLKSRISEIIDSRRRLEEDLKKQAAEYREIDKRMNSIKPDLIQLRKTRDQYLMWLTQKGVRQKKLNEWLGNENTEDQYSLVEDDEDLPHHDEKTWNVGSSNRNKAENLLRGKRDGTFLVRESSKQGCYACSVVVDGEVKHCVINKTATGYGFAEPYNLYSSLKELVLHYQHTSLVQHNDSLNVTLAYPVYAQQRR

“RDGGGPGGDpYAAMGACPA (RDGGGPGGD[pY]AAMGACPA; listed as Homo sapiens) [1257 phosphopeptide]”: the “inhibition of p85 and HER3 interaction” value in the test with p85 and HER3 interaction is “inhibits effectively p85 and HER3 interaction”. In addition, the “total level of HER3” value with HER3 was “decrease”. The “reduction of colony number” value with BT474 cells and with MCF7 cells was “up to 80%” in each case.
